From patent publication US9702865B2, “System and method for high-content oncology assay” (RIGEL PHARMACEUTICALS, INC., priority 2002, dated 2017)

What was measured:
Assay type in all cases: cell-based
[1] = system: A549 cells; experiment: cell proliferation assay (nuclei count, cell proliferation analysis module); conditions: Homo sapiens; taxol-treated A549 cells, nuclei count vs concentration, FIG. 5
From the text: The cell proliferation analysis module 58 provides information about the ability of cells to divide and proliferate. In general, the cell proliferation analysis module provides such information by counting the number of objects (typically nuclei) identified by the object identification module 57. In one embodiment, the cell proliferation analysis module […] can be used to screen for and/or identify candidate compounds having anti-proliferative activity. According to this embodiment, the proliferation of cells treated with or exposed to a candidate compound of interest can be monitored with the cell proliferation analysis module 58 of the invention. […] In a specific embodiment, samples of equal volume are collected from a cell culture as a function of time and analyzed for proliferation with the cell proliferation analysis module 58 of the invention. […]
In another specific embodiment, adherent cells may be treated with different concentrations of test compound, permitted to incubate for a specified period time and then analyzed with the cell proliferation analysis module 58. Plotting the average number of cells in each sample well as a function of compound concentration provides a curve from which the anti-proliferative IC50 (or EC50) can be determined. […]

[2] = system: A549 cells; experiment: in vitro; conditions: FIG. 10
From the text: (§1) FIG. 9A illustrates one embodiment of processing steps associated with the operation of the cell death analysis module 62. The first processing step of FIG. 9A is to obtain luminescence intensity (LI) values corresponding to defined nuclei of cells captured by the image capture device (block 130), as described above. Based upon these LI values, the minimum nuclear luminescence intensity values (“MNLI”) are obtained (block 132). The MNLI value for a nucleus is the lowest LI value measured for that nucleus, for example, the lowest gray value of the pixels within a specific defined nucleus. At this point, the cell death analysis module 62 may compare the MNLI values of particular cells to a range of predefined MNLI values indicative of viable cells (block 134). A value falling outside this range identifies the cell as being non-viable or dead, whereas a value falling within this range identifies the cell as being viable or alive. Alternatively, the cell death analysis module 62 may be carried out with populations of cells, as illustrated in FIG. 9B. In this instance, MNLI values for a plurality of defined nuclei are obtained (block 142) based upon their LI values (block 140) and the percentage of cells having MNLI values falling outside a specified range of MNLI values is calculated (block 144). This percentage is then compared with a predefined percentage range indicative of a viable cell population (block 146). Cell populations having percentages falling within the predefined range are reported as viable populations, whereas percentages falling outside the predefined range are reported as non-viable populations.
(§2) In one embodiment, the range of MNLI values indicative of viable cells may be calculated from control cell MNLI values using standard statistical analyses. For example, the MNLI values that bound a specified percentage or confidence interval, for example, 80%, 90%, 95% or a higher percentage, of the control cell MNLI values may be used as boundaries to defined the range of MNLI values indicative of viable cells. As this range is only exemplary, it will be appreciated that higher or lower percentages may be utilized. As a specified example, the MNLI values that bound 95% of the MNLI values using a standard statistical analysis yields good results. […] Once applied, the percentage of test cells falling within (or without) the range can be calculated to assess whether the cell population is viable or non-viable. […]
(§3) The coordinates of these DMSO-treated cells form a tight band of MNLI values. Based on a statistical analysis, 95% of the MNLI values measured from this population fall within a range of 481 to 560 intensity units (i.e., within a range of […] from the statistical mean MNLI value). […]

[3] = in vitro; conditions: human
From the text: as §1, §2, §3

Row | EC50 [1] [nM] | Compound | induction of cell death (MNLI analysis and visual inspection of images) [2] | viability [3] [%]
1 | 2.2 | CC(=O)O[C@H]1C(=O)[C@@]2(C)[C@H]([C@H](OC(=O)c3ccccc3)[C@]3(O)C[C@H](OC(=O)[C@H](O)[C@@H](NC(=O)c4ccccc4)c4ccccc4)C(C)=C1C3(C)C)[C@]1(OC(C)=O)CO[C@@H]1C[C@@H]2O [taxol] | induce cell death | 83
2 | – | COc1cc([C@@H]2c3cc4c(cc3[C@@H](O[C@@H]3O[C@@H]5CO[C@@H](C)O[C@H]5[C@H](O)[C@H]3O)[C@H]3COC(=O)[C@H]23)OCO4)cc(OC)c1O [etoposide] | do not | 99.5
